Test results taken from patent publication US7084128B2, “Method for reducing intraocular pressure” (Inspire Pharmaceuticals, Inc., priority 2002, dated 2006).

Assays:
[1] = system: intraocular pressure (IOP); conditions: New Zealand white rabbits; for time of maximal reduction in IOP: 0.25 mM topical single dose, IOP measured at 0.5, 1, 2 and 5 hours after application; for maximal reduction in IOP: 10 microliters of 0.25 mM in 0.9% saline, topical, unilateral, single dose, at time of maximal effect, n=4
Method: The actions of 2′-(O)-, 3′-(O)-(benzyl)methylenedioxy-adenosine-5′-triphosphate (Compound 1) and 2′-(O)-, 3′-(O)-(benzyl)methylenedioxy-2″-(O)-,3″-(O)-benzyl methylenedioxy-P^1, P^4-di(adenosine 5′-)tetraphosphate (Compound 2) on intraocular pressure (IOP) were assessed in New Zealand white rabbits.
Intraocular pressure measurements: IOP was measured using a TONOPEN contact tonometer supplied by MENTOR (USA). Ten microliters of the agents were applied topically and unilaterally to the cornea, whereas the contralateral eye received the same volume of saline solution. The corneas were anesthetized to avoid any discomfort associated with the use of the tonometer. Two measurements were made before application of the agents.
Pharmacological studies: Compounds were prepared at a concentration of 0.25 mM in 0.9% saline and intraocular pressure was measured at 0.5, 1, 2, and 5 hours after the application. A single dose was tested in a single animal on a single day.

[2] = system: intraocular pressure; conditions: literature (Peral et al. 2000; Pintor et al. 2000); cited from earlier work

Molecule | time of maximal reduction in IOP [1] [h] | maximal reduction in IOP [1] [%] | effect on intraocular pressure in rabbits [2]
2′-(O)-, 3′-(O)-(benzyl)methylenedioxy-adenosine-5′-triphosphate [Compound 1] | 1 to 2 | 21 | 
Nc1ncnc2c1ncn2[C@@H]1O[C@H](COP(=O)(O)CP(=O)(O)OP(=O)(O)O)[C@@H](O)[C@H]1O [Alpha, Beta-Methylene adenosine triphosphate] |  |  | reduce intraocular pressure
Nc1ncnc2c1ncn2[C@@H]1O[C@H](COP(=O)(O)OP(=O)(O)OP(=O)(O)OP(=O)(O)OC[C@H]2O[C@@H](n3cnc4c(N)ncnc43)[C@@H]3OC(Cc4ccccc4)O[C@@H]32)[C@H]2OC(Cc3ccccc3)O[C@H]21 (stereo partly shown) [Compound 2, 2′-(O)-, 3′-(O)-(benzyl)methylenedioxy-2″-(O)-,3″-(O)-benzyl methylenedioxy-P^1, P^4-di(adenosine 5′-)tetraphosphate] | 1 | 22 | 
Nc1ncnc2c1ncn2[C@@H]1O[C@H](COP(=O)(O)OP(=O)(O)OP(=O)(O)OP(=O)(O)OC[C@H]2O[C@@H](n3cnc4c(N)ncnc43)[C@H](O)[C@@H]2O)[C@@H](O)[C@H]1O [Diadenosine tetraphosphate] |  |  | lower intraocular pressure
Nc1ncnc2c1ncn2[C@@H]1O[C@H](COP(=O)(O)OP(=O)(O)CP(=O)(O)O)[C@@H](O)[C@H]1O [beta, gamma methylene adenosine triphosphate] |  |  | reduce intraocular pressure
